Experimental findings from patent US9889146B2, “Benzoxaborole compounds and uses thereof” (priority 2012, dated 2018) are described below.

Converted amounts (≈) assume the structure as drawn. Where two headings read alike, the source gives them in different places.

What all share (type): cell-based
Experiment [1] deals with Escherichia coli 1161435 parent and mutant strains B4, B26 and B35. The experiment is described as follows: Sensitivity to leucine analogs in MH and M9 media.
A further experiment concerns P. aeruginosa. Briefly: In vitro activity against P. aeruginosa clinical isolates. The settings on record: P. aeruginosa, 2,008 clinical isolates; GSK2251052 based on potential susceptible breakpoint of ≦4 μg/mL. As to the method:
GSK2251052 was tested for activity against P. aeruginosa, and its activity was compared to other antibiotics of known activity. The results are shown below in Tables 2a and 2b. Of 2,008 clinical isolates tested (from 2009-2010 subjects, of which 40% were from North America) greater than 90% were susceptible to GSK2251052 based on a potential susceptible breakpoint of ≦4 μg/mL.

Experiment [2] deals with K. pneumoniae ATCC 13883 wild type and mutants. Briefly: MIC, wild type and GSK2251052 resistant mutants. The settings on record: Klebsiella pneumoniae. The method, then: (§1) Spontaneous Resistance Frequency was determined in vitro for GSK2251052 and the resistance mutants in E. coli ATCC 25922, K. pneumoniae ATCC 13883, and P. aeruginosa ATCC 27853 strains were characterized. GSK2251052 was prepared as described in U.S. Pat. No. 7,816,344 (the entire contents of which are hereby incorporated by reference herein). LB broth, Mueller Hinton II broth (adjusted), and Difco noble agar were obtained from Becton Dickinson (Cockeysville, Md., USA). M9 minimal broth containing 1×M9 salt, 0.5 μg/ML thiamine, 1 mM MgSO4, 0.1 mM CaCl2, 2% glucose, was obtained from Teknova (Hollister, Calif., USA). Antibacterial agents ciprofloxacin, ceftazidime, chloramphenicol, gentamycin, kanamycin, polymixin B, tobramycin and trimethoprim, and amino acids were obtained from Sigma Chemicals (St. Louis, Mo., USA). Strains were obtained from ATCC (Manassas, Va., USA).
(§2) Susceptibility tests were performed following the recommendations for aerobic bacteria (M7-A7) from the Clinical and Laboratories Standards Institute (CLSI).
(§3) Laboratory generated mutants resistant to GSK2251052 contain mutations in the editing domain of LeuRS. Six to ten GSK2251052 resistant colonies of E. coli ATCC 25922, K. pneumoniae ATCC 13883 and P. aeruginosa ATCC 27853 were selected for further analysis and their MICs to GSK2251052 were determined (Table 4-7).

The test system of experiment [3] is P. aeruginosa ATCC 27853 wild type and mutants. The experiment is described as follows: MIC, wild type and GSK2251052 resistant mutants. Conditions: Pseudomonas aeruginosa. The method, then:
as §1, §2, §3

The subject of experiment [4] is E. coli ATCC 25922 wild type and mutants. Briefly: MIC, wild type and GSK2251052 resistant mutants. The settings on record: Escherichia coli. As to the method:
as §1, §2, §3

Consider `C[C@@H](O)[C@H](N)C(=O)O` [L-Threonine], for which the MIC (sensitivity to leucine analogs) was more than 128 µg/mL in experiment [1] (1161435 Parent, M9); more than 128 µg/mL in experiment [1] (1161435 Parent, MH); more than 128 µg/mL in experiment [1] (B4 (P339L), M9); more than 128 µg/mL in experiment [1] (B4 (P339L), MH); more than 128 µg/mL in experiment [1] (B26 (R334H), M9); more than 128 µg/mL in experiment [1] (B26 (R334H), MH). Moreover, the MIC (sensitivity to leucine analogs) in experiment [1] (B35 (D251N), M9) is more than 128 µg/mL; in experiment [1] (B35 (D251N), MH), more than 128 µg/mL.

Take `CC(C)[C@H](N)C(=O)O` [L-Valine]: the MIC (sensitivity to leucine analogs) is more than 128 µg/mL in experiment [1] (1161435 Parent, M9); more than 128 µg/mL in experiment [1] (1161435 Parent, MH); more than 128 µg/mL in experiment [1] (B4 (P339L), M9); more than 128 µg/mL in experiment [1] (B4 (P339L), MH); more than 128 µg/mL in experiment [1] (B26 (R334H), M9); more than 128 µg/mL in experiment [1] (B26 (R334H), MH). Also, the MIC (sensitivity to leucine analogs) is more than 128 µg/mL in experiment [1] (B35 (D251N), M9) and more than 128 µg/mL in experiment [1] (B35 (D251N), MH).

As to `CC(=O)CC(N)C(=O)O` (racemic) [DL-oxonorvaline], the MIC (sensitivity to leucine analogs) in experiment [1] (1161435 Parent, M9) is 128 µg/mL; in experiment [1] (1161435 Parent, MH), more than 256 µg/mL; in experiment [1] (B4 (P339L), M9) it was 64 µg/mL; in experiment [1] (B4 (P339L), MH) it was more than 256 µg/mL; in experiment [1] (B26 (R334H), M9), 64 µg/mL; in experiment [1] (B26 (R334H), MH), more than 256 µg/mL. The MIC (sensitivity to leucine analogs) in experiment [1] (B35 (D251N), M9) is 128 µg/mL; in experiment [1] (B35 (D251N), MH), more than 256 µg/mL.

For `CC(CC(N)C(=O)O)C(F)(F)F` (racemic) [5,5,5-Trifluoro-DL-Leucine], the MIC (sensitivity to leucine analogs) is 128 µg/mL in experiment [1] (1161435 Parent, M9); more than 128 µg/mL in experiment [1] (1161435 Parent, MH); 128 µg/mL in experiment [1] (B4 (P339L), M9); more than 128 µg/mL in experiment [1] (B4 (P339L), MH); 64 µg/mL in experiment [1] (B26 (R334H), M9); more than 128 µg/mL in experiment [1] (B26 (R334H), MH). Also, the MIC (sensitivity to leucine analogs) was 64 µg/mL in experiment [1] (B35 (D251N), M9) and more than 128 µg/mL in experiment [1] (B35 (D251N), MH).

As for `CN(C)CC(N)C(=O)O.Cl.Cl` (racemic) [4-Aza-DL-Leucine dihydrochloride], the MIC (sensitivity to leucine analogs) in experiment [1] (1161435 Parent, M9) was 64 µg/mL; in experiment [1] (1161435 Parent, MH) it was more than 128 µg/mL; in experiment [1] (B4 (P339L), M9), 64 µg/mL; in experiment [1] (B4 (P339L), MH), more than 128 µg/mL; in experiment [1] (B26 (R334H), M9) it was 64 µg/mL; in experiment [1] (B26 (R334H), MH), more than 128 µg/mL. The MIC (sensitivity to leucine analogs) in experiment [1] (B35 (D251N), M9) is 32 µg/mL; in experiment [1] (B35 (D251N), MH) it was more than 128 µg/mL.

Regarding `NC(CC1CCCC1)C(=O)O` (racemic) [3-Cyclopentyl-DL-Alanine], the MIC (sensitivity to leucine analogs) in experiment [1] (1161435 Parent, M9) was more than 128 µg/mL; in experiment [1] (1161435 Parent, MH) it was more than 128 µg/mL; in experiment [1] (B4 (P339L), M9), more than 128 µg/mL; in experiment [1] (B4 (P339L), MH), more than 128 µg/mL; in experiment [1] (B26 (R334H), M9), more than 128 µg/mL; in experiment [1] (B26 (R334H), MH) it was more than 128 µg/mL. Further, the MIC (sensitivity to leucine analogs) is more than 128 µg/mL in experiment [1] (B35 (D251N), M9) and more than 128 µg/mL in experiment [1] (B35 (D251N), MH).

Take `CC[C@H](C)[C@H](N)C(=O)O` [L-Isoleucine]: the MIC (sensitivity to leucine analogs) is more than 128 µg/mL in experiment [1] (1161435 Parent, M9); more than 128 µg/mL in experiment [1] (1161435 Parent, MH); more than 128 µg/mL in experiment [1] (B4 (P339L), M9); more than 128 µg/mL in experiment [1] (B4 (P339L), MH); more than 128 µg/mL in experiment [1] (B26 (R334H), M9); more than 128 µg/mL in experiment [1] (B26 (R334H), MH). The MIC (sensitivity to leucine analogs) in experiment [1] (B35 (D251N), M9) was more than 128 µg/mL; in experiment [1] (B35 (D251N), MH), more than 128 µg/mL.

With `C=CCC(N)C(=O)O` (racemic) [DL-2-Allylglycine], the MIC (sensitivity to leucine analogs) in experiment [1] (1161435 Parent, M9) was 16 µg/mL; in experiment [1] (1161435 Parent, MH), more than 128 µg/mL; in experiment [1] (B4 (P339L), M9), 16 µg/mL; in experiment [1] (B4 (P339L), MH), more than 128 µg/mL; in experiment [1] (B26 (R334H), M9), 16 µg/mL; in experiment [1] (B26 (R334H), MH) it was more than 128 µg/mL. The MIC (sensitivity to leucine analogs) in experiment [1] (B35 (D251N), M9) is 32 µg/mL; in experiment [1] (B35 (D251N), MH), more than 128 µg/mL.

Take `NCC[C@H](O)C(=O)N[C@@H]1C[C@H](N)[C@@H](O[C@H]2O[C@H](CN)[C@@H](O)[C@H](O)[C@H]2O)[C@H](O)[C@H]1O[C@H]1O[C@H](CO)[C@@H](O)[C@H](N)[C@H]1O` [Amikacin]: the “% susceptible” value in the experiment on P. aeruginosa is 90.2%.

As to `NC[C@H]1O[C@H](O[C@H]2[C@H](O)[C@@H](O[C@H]3O[C@H](CO)[C@@H](O)[C@H](N)[C@H]3O)[C@H](N)C[C@@H]2N)[C@H](O)[C@@H](O)[C@@H]1O` [Kanamycin], the MIC came out at 2 µg/mL (≈ 4.13 µM) in experiment [2] (ATCC13883, K wt., read-out: MICs); 2 µg/mL (≈ 4.13 µM) in experiment [2] (ATCC13883, read-out: MICs, mutant K 104); 2 µg/mL (≈ 4.13 µM) in experiment [2] (ATCC13883, read-out: MICs, mutant K 105); 2 µg/mL (≈ 4.13 µM) in experiment [2] (ATCC13883, read-out: MICs, mutant K 107); 2 µg/mL (≈ 4.13 µM) in experiment [2] (ATCC13883, read-out: MICs, mutant K 108); 1 µg/mL (≈ 2.06 µM) in experiment [2] (ATCC13883, read-out: MICs, mutant K 110). The MIC in experiment [3] (ATCC27853, P wt., read-out: MICs) is more than 64 µg/mL; in experiment [3] (ATCC27853, read-out: MICs, mutant P 101) it was more than 64 µg/mL; in experiment [3] (ATCC27853, read-out: MICs, mutant P106) it was more than 64 µg/mL; in experiment [3] (ATCC27853, read-out: MICs, mutant P108), more than 64 µg/mL; in experiment [4] (ATCC25922, E wt, read-out: MICs) it was 4 µg/mL (≈ 8.26 µM); in experiment [4] (ATCC25922, read-out: MICs, mutant E 101), 4 µg/mL (≈ 8.26 µM). The MIC in experiment [4] (ATCC25922, read-out: MICs, mutant E 102) turned out to be 4 µg/mL (≈ 8.26 µM); in experiment [4] (ATCC25922, read-out: MICs, mutant E 107), 8 µg/mL (≈ 16.5 µM).

Consider `CSCC[C@H](N)C(=O)O` [L-Methionine], for which the MIC (sensitivity to leucine analogs) in experiment [1] (1161435 Parent, M9) is more than 128 µg/mL; in experiment [1] (1161435 Parent, MH), more than 128 µg/mL; in experiment [1] (B4 (P339L), M9) it was more than 128 µg/mL; in experiment [1] (B4 (P339L), MH), more than 128 µg/mL; in experiment [1] (B26 (R334H), M9), more than 128 µg/mL; in experiment [1] (B26 (R334H), MH), more than 128 µg/mL. Moreover, the MIC (sensitivity to leucine analogs) is more than 128 µg/mL in experiment [1] (B35 (D251N), M9) and more than 128 µg/mL in experiment [1] (B35 (D251N), MH).

For Colistin, the “% susceptible” value in the experiment on P. aeruginosa is reported as 62.3%.
